Results: the supplement of paper PMC10307832

How the values were obtained:
[1] = compound: C[C@@H](Oc1cc(-c2cnn(C3CCNCC3)c2)cnc1N)c1c(Cl)ccc(F)c1Cl [Crizotinib] + CC(=O)c1c(C)c2cnc(Nc3ccc(N4CCNCC4)cn3)nc2n(C2CCCC2)c1=O [Palbociclib] (partner 0.5 µM); assay: relative viability (nuclei count vs DMSO), 5 days (fraction); higher = more cells survive
Summary of the method: (§1)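 The day after seeding in 1536-well plates, lung cancer cell lines were treated by pin tool with a single drug, or with a fixed anchor-drug dose together with five library-drug doses (not always all listed) in √10 steps. After 5 days, a combined fix-and-stain solution (final 0.05% Triton X-100, 1% formaldehyde, 1 ug/ml Hoechst) was added. Nuclei counted on 4× images gave relative viability as treated counts over vehicle counts, reported as the median of duplicate plates.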

[2] = compound: CC(C)C[C@H](NC(=O)[C@H](CCc1ccccc1)NC(=O)CN1CCOCC1)C(=O)N[C@@H](Cc1ccccc1)C(=O)N[C@@H](CC(C)C)C(=O)[C@@]1(C)CO1 [Carfilzomib] + Cc1nc(Nc2ncc(C(=O)Nc3c(C)cccc3Cl)s2)cc(N2CCN(CCO)CC2)n1 [Dasatinib] (partner 0.075 µM); assay: as above
Summary of the method: as §1

Row | Cell Line | relative viability ([1]; first compound 0.01 µM) | relative viability ([1]; first compound 0.03162 µM) | relative viability ([1]; first compound 0.1 µM) | relative viability ([1]; first compound 0.3162 µM) | relative viability ([1]; first compound 1 µM) | relative viability ([2]; first compound 0.001 µM) | relative viability ([2]; first compound 0.003162 µM) | relative viability ([2]; first compound 0.01 µM) | relative viability ([2]; first compound 0.03162 µM) | relative viability ([2]; first compound 0.1 µM)
1 | SK-LU-1 | 0.391 | 0.359 | 0.38 | 0.361 | 0.436 | 0.167 | 0.189 | 0.236 | 0.0906 | 0.117
2 | SK-MES-1 | 0.295 | 0.318 | 0.341 | 0.312 | 0.302 | 0.323 | 0.454 | 0.409 | 0.197 | 0.107
3 | SW 900 | 0.544 | 0.453 | 0.497 | 0.546 | 0.514 | 0.561 | 0.467 | 0.137 | 0.141 | 0.137
4 | SW 1573 | 0.373 | 0.368 | 0.39 | 0.417 | 0.411 | 0.653 | 0.764 | 0.372 | 0.0426 | 0.0643
5 | UMC-11 | 0.329 | 0.336 | 0.307 |  | 0.398 | 0.52 | 0.412 | 0.415 | 0.393 | 0.184
